Experimental data published in patent publication US7435832B2, “Crystals including a malic acid salt of a 3-pyrrole substituted 2-indolinone, and compositions thereof” (Pharmacia & Upjohn Company, priority 2001, dated 2008).
Structures can show the parent of a compound that is named as a salt.

Key:
Assay type in all cases: physicochemical
[1] = Dynamic moisture sorption gravimetry (DMSG), hygroscopicity; conditions: for Water absorbed (moisture sorption): across the 0-90% relative humidity range, 25° C.
Procedure: X-ray diffraction (XRD) patterns were measured on a Scintag X2 diffractometer (Thermo ARL, Ecublens, Switzerland) equipped with a theta-theta goniometer. Melting points were determined using a TA Instruments 2920 differential scanning calorimeter (TA Instruments, New Castle, Del.) with standard crimped pans and a heating rate of 10° C./minute. Hygroscopicity was assessed by dynamic moisture sorption gravimetry (DMSG) using a Controlled Atmosphere Microbalance (Pharmacia Corp., Kalamazoo, Mich.). All chemicals used are available from Aldrich Chemical Co., Milwaukee, Wis., unless otherwise specified. N-[2-(diethylamino)ethyl]-5-[(5-fluoro-1,2-dihydro-2-oxo-3H-indol-3-ylidene)methyl]-2,4-dimethyl-1H-pyrrole-3-carboxamide was prepared as the free base by a procedure similar to that described in Example 80 of PCT International Publication No. WO 01/60814 (Tang et al.).
Dynamic Moisture Sorption Gravimetry (DMSG). DMSG isotherms were collected on the variable temperature controlled atmosphere microbalance. Approximately 10 mg samples were used in the balance. Samples were run as received. The humidity was sequentially set between 0 and 90% relative humidity (RH) in 3% RH steps. The mass was then measured every two minutes. The RH was changed to the next value when the mass of the sample was stable to within 0.5 microgram in 480 seconds. A Visual Basic program was used to control the data collection and export the information to an Excel spreadsheet.

[2] = Solubility in water; conditions: in water at 25° C.
Procedure: The solubility of Crystal Form I of the L-malic acid salt of N-[2-(diethylamino)ethyl]-5-[(5-fluoro-1,2-dihydro-2-oxo-3H-indol-3-ylidene)methyl]-2,4-dimethyl-1H-pyrrole-3-carboxamide was determined to be 5 mg/mL in water at 25° C.

[3] = Solid state stability study of bulk crystals (HPLC analysis, PXRD); conditions: for Purity (Area %) / Total Impurities (Area %): HPLC
Excerpt: As referred to in the present application, “stable” in bulk drug stability tests means that at least about 97% by weight, preferably at least about 98% by weight, and more preferably at least about 99% by weight of the bulk drug remains unchanged after storage under the indicated conditions for the indicated time.
A solid state stability study of Crystal Form I of the L-malic acid salt of N-[2-(diethylamino)ethyl]-5-[(5-fluoro-1,2-dihydro-2-oxo-3H-indol-3-ylidene)methyl]-2,4-dimethyl-1H-pyrrole-3-carboxamide was also conducted (Table 2).

| Water absorbed (moisture sorption) [1] | solubility [2] [µg/mL] | Purity (Area %) ([3]; 2 weeks at 60° C./75% RH) | Total Impurities (Area %) ([3]; 2 weeks at 60° C./75% RH) | Purity (Area %) ([3]; 2 weeks at 60° C./ambient RH) | Total Impurities (Area %) ([3]; 2 weeks at 60° C./ambient RH) | Purity (Area %) ([3]; 2 weeks at 80° C./ambient RH) | Total Impurities (Area %) ([3]; 2 weeks at 80° C./ambient RH) | Purity (Area %) ([3]; 4 weeks at 60° C./75% RH) | Total Impurities (Area %) ([3]; 4 weeks at 60° C./75% RH) | Purity (Area %) ([3]; 4 weeks at 60° C./ambient RH) | Total Impurities (Area %) ([3]; 4 weeks at 60° C./ambient RH) | Purity (Area %) ([3]; 4 weeks at 80° C./ambient RH) | Total Impurities (Area %) ([3]; 4 weeks at 80° C./ambient RH) | Purity (Area %) ([3]; Initial) | Total Impurities (Area %) ([3]; Initial) | Degradation after aging ([3]; four weeks at 60° C./ambient RH, 60° C./75% RH and 80° C./ambient RH) | Change in crystal form by powder X-ray diffraction ([3]; two-week stability samples) | Water absorbed upon exposure to humidity ([1]; 80% relative humidity) | SMILES |
| --- | --- | --- | --- | --- | --- | --- | --- | --- | --- | --- | --- | --- | --- | --- | --- | --- | --- | --- | --- |
| less than 0.5% | 5000 | 99.6 | 1.2 | 98.2 | 1.1 | 99.5 | 1.2 | 100.1 | 2.2 | 100.4 | 1.2 | 98.0 | 3.1 | 99.7 | 1.5 | no significant degradation | no change in crystal form |  | CCN(CC)CCNC(=O)c1c(C)[nH]c(/C=C2\C(=O)Nc3ccc(F)cc32)c1C [Crystal Form I, L-malic acid salt of N-[2-(diethylamino)ethyl]-5-[(5-fluoro-1,2-dihydro-2-oxo-3H-indol-3-ylidene)methyl]-2,4-dimethyl-1H-pyrrole-3-carboxamide] |
| over 15% |  |  |  |  |  |  |  |  |  |  |  |  |  |  |  |  |  | at least 5 % by weight | CCN(CC)CCNC(=O)c1c(C)[nH]c(/C=C2\C(=O)Nc3ccc(F)cc32)c1C [Crystal Form II, L-malic acid salt of N-[2-(diethylamino)ethyl]-5-[(5-fluoro-1,2-dihydro-2-oxo-3H-indol-3-ylidene)methyl]-2,4-dimethyl-1H-pyrrole-3-carboxamide] |
